From patent US8496967B2, “Oral formulations” (ARIAD Pharmaceuticals, Inc., priority 2006, dated 2013)

Legend:
[1] = tested on: human tumor cell lines, including prostate, endometrial, soft tissue and bone sarcoma, leukemia, lymphoma and glioblastoma cell lines; assay: in vitro proliferation of human tumor cell lines; assay type: cell-based
[2] = tested on: human tumor cell lines, including prostate, endometrial, soft tissue and bone sarcoma, leukemia, lymphoma and glioblastoma cell lines; assay: in vivo xenograft models of human tumor cell lines
[3] = study of the degradation of AP23573; assay type: physicochemical

CO[C@H]1C[C@@H]2CC[C@@H](C)[C@@](O)(O2)C(=O)C(=O)N2CCCC[C@H]2C(=O)O[C@H]([C@H](C)C[C@@H]2CC[C@@H](OP(C)(C)=O)[C@H](OC)C2)CC(=O)[C@H](C)/C=C(\C)[C@@H](O)[C@@H](OC)C(=O)[C@H](C)C[C@H](C)/C=C/C=C/C=C/1C [AP23573, 43-dimethylphosphinate ester of rapamycin]
inhibition of proliferation of human tumor cell lines [1]: potently inhibited proliferation | inhibition of proliferation of human tumor cell lines [2]: potently inhibited proliferation | aqueous degradation ([3]; aqueous, forms ring opened seco-AP23573): undergoes aqueous degradation via cleavage of a lactone bond | oxidative degradation pathway ([3]; oxidation): oxidation of the compound's triene moiety
